# Patent publication US11446298B2, “Pyrimidine derivatives” (Idorsia Pharmaceuticals Ltd, priority 2017, dated 2022)
# Assays:
# Format in all cases: cell-based
# PTGER2 (EP2) = target: T1, PTGER2 (EP2) (Homo sapiens, UniProt P43116); test: hEP2 b-Arrestin Assay (PathHunter HEK 293 PTGER2 b-arrestin cells, PGE2 5 μM); conditions: antagonistic activity, beta-arrestin assay, HEK 293 PTGER2 cells, PGE2 5 μM (EC80); read-out: hEP2 b-arr IC50
# T1 construct: host or cells: HEK 293 (PathHunter, stably transfected)
# Procedure, shortened: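 PathHunter enzyme-fragment complementation in HEK 293 cells: compounds (10 μM-2 nM or 1 μM-0.2 nM) pre-incubated 15 min at 37 °C, then 5 μM PGE2 (EC80) for 120 min at 37 °C. Chemiluminescence read after 1 h detection; IC50 from duplicate dose-response fits, means of repeats.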
# PTGER4 (EP4) = target: T2, PTGER4 (EP4) (Homo sapiens, UniProt P35408); test: hEP4 b-Arrestin Assay (PathHunter HEK 293 PTGER4 b-arrestin cells, PGE2 20 nM); conditions: antagonistic activity, beta-arrestin assay, HEK 293 PTGER4 cells, PGE2 20 nM (EC80); read-out: hEP4 b-arr IC50
# T2 construct: host or cells: HEK 293 (PathHunter, stably transfected)
# Procedure, shortened: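 PathHunter HEK 293 EP4 b-arrestin enzyme-complementation cells preincubated 15 min at 37° C with compound (10 μM-2 nM or 1 μM-0.2 nM), then stimulated 120 min with 20 nM PGE2 (EC80). Chemiluminescence read; IC50 from duplicate % activity vs DMSO, one-site fit, averaged over repeats.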
# EP4 = target: T3, EP4 (Homo sapiens, UniProt P35408); test: hEP4 cAMP Assay (BT549 breast cancer cells, HTRF cAMP, PGE2 6 nM); conditions: antagonistic activity, PGE2 6 nM (EC80)
# T3 construct: BT549 breast cancer cells, express high endogenous EP4 levels and very low EP2 levels; host or cells: BT549 breast cancer cells
# Procedure, shortened: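 Antagonism is measured as inhibition of PGE2 (6 nM final, EC80) cAMP accumulation in EP4-expressing BT549 breast cancer cells, after a 45 min room-temperature compound pre-incubation and 30 min agonist step, with 2 mM IBMX present. HTRF ratio gives cAMP relative to DMSO; IC50 fitted, means over repeat runs.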
# EP2 = target: T4, EP2 (Homo sapiens, UniProt P43116); test: hEP2 cAMP Assay (SF295 glioblastoma cells, HTRF cAMP, PGE2 75 nM); conditions: antagonistic activity, PGE2 75 nM (EC80)
# T4 construct: SF295 glioblastoma cells express high endogenous EP2 and no EP4; host or cells: SF295 glioblastoma cells
# Procedure, shortened: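 IC50 values derive from duplicate-point curves of percent cAMP relative to DMSO, read by HTRF (665/620 nm) against a cAMP calibrator. Compounds (30 μM to 0.01 nM ranges) were given 45 min at room temperature before 30 min with 75 nM PGE2, in EP2-only SF295 cells with 2 mM IBMX.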
# T4 sequence (P43116 whole entry): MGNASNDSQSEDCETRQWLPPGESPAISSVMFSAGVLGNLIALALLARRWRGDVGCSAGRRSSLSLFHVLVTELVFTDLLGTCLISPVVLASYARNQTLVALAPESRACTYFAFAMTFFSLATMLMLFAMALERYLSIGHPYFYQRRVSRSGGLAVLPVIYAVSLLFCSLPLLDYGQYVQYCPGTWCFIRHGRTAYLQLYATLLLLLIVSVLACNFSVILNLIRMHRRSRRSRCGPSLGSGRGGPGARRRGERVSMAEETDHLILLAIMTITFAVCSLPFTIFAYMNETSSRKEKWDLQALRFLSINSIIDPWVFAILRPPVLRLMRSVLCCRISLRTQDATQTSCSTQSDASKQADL
# T1 sequence (P43116 whole entry): as above
# T2 sequence (P35408 whole entry): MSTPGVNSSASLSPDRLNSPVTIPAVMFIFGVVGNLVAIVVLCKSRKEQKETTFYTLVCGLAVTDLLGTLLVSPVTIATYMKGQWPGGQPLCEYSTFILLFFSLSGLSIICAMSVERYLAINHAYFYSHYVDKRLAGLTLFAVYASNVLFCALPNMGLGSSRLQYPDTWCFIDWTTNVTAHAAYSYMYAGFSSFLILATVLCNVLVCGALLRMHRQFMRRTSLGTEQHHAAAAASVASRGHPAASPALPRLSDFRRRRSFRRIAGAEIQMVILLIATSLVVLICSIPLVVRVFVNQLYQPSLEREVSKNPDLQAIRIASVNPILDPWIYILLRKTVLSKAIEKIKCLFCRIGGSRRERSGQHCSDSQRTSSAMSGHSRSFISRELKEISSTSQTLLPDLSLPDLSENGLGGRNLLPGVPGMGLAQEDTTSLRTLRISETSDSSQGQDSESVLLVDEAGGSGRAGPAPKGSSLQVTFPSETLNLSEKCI
# T3 sequence (P35408 whole entry): as above
IC50 (PTGER2 (EP2)) [nM],IC50 (PTGER4 (EP4)) [nM],IC50 (EP4) [nM],IC50 (EP2) [nM],Compound
32,19,29,24,"CCOc1cc(-c2cc(NCCc3ccc(Cl)c4ccccc34)ncn2)sc1C(=O)O [Example 62, 5-{6-[2-(4-Chloro-naphthalen-1-yl)-ethylamino]-pyrimidin-4-yl}-3-ethoxy-thiophene-2-carboxylic acid]"
15,145,48,15,"CCOc1cc(-c2cc(NCCc3cccc4c3ccn4C)ncn2)sc1C(=O)O [Example 25, 3-Ethoxy-5-{6-[2-(1-methyl-1H-indol-4-yl)-ethylamino]-pyrimidin-4-yl}-thiophene-2-carboxylic acid]"
10,175,140,15,"CSc1cc(-c2cc(NCCc3cccc4c(C)cccc34)ncn2)ccc1C(=O)O [Example 173, 4-{6-[2-(5-Methyl-naphthalen-1-yl)-ethylamino]-pyrimidin-4-yl}-2-methylsulfanyl-benzoic acid]"
